Reference: ChEMBL document CHEMBL3045667, “Design, synthesis, and anticonvulsant activity of novel quinazolinone analogues” (Med Chem Res, 2011)

Assays:
[1] = system: Mus musculus; assay: Anticonvulsant activity in Mus musculus (mouse) assessed as protection against pentylenetetrazole-induced seizures at 100 mg/kg, ip administered 1 hr before pentylenetetrazole challenge measured after 30 min; assay type: functional; conditions: route intraperitoneal
[2] = system: Mus musculus; assay: Anticonvulsant activity in ip dosed Mus musculus (mouse) assessed as protection against pentylenetetrazole-induced seizures administered 1 hr before pentylenetetrazole challenge measured after 30 min; assay type: functional; conditions: read-out: PD50
[3] = Lipophilicity, log P of the compound; assay type: physicochemical; conditions: octanol/water
[4] = system: Mus musculus; assay: Anticonvulsant activity in Mus musculus (mouse) assessed as protection against pentylenetetrazole-induced seizures at 150 mg/kg, ip administered 1 hr before pentylenetetrazole challenge measured after 30 min; assay type: functional; conditions: route intraperitoneal
[5] = system: Mus musculus; assay: Anticonvulsant activity in Mus musculus (mouse) assessed as protection against pentylenetetrazole-induced seizures at 50 mg/kg, ip administered 1 hr before pentylenetetrazole challenge measured after 30 min; assay type: functional; conditions: route intraperitoneal
[6] = system: Mus musculus; assay: Anticonvulsant activity in Mus musculus (mouse) assessed as protection against pentylenetetrazole-induced seizures at 15 mg/kg, ip administered 1 hr before pentylenetetrazole challenge measured after 30 min; assay type: functional; conditions: route intraperitoneal
[7] = system: Mus musculus; assay: Anticonvulsant activity in Mus musculus (mouse) assessed as protection against pentylenetetrazole-induced seizures at 10 mg/kg, ip administered 1 hr before pentylenetetrazole challenge measured after 30 min; assay type: functional; conditions: route intraperitoneal
[8] = system: Mus musculus; assay: Anticonvulsant activity in Mus musculus (mouse) assessed as protection against pentylenetetrazole-induced seizures at 20 mg/kg, ip administered 1 hr before pentylenetetrazole challenge measured after 30 min; assay type: functional; conditions: route intraperitoneal

Compound	Activity [1] [%]	ED50 [2] [mg/kg]	logP [3]	Activity [4] [%]	Activity [5] [%]	Activity [6] [%]	Activity [7] [%]	Activity [8] [%]
O=C1C=C(Sc2nc3ccccc3c(=O)n2-c2ccccc2)C(=O)N=N1	62.5	66	2.13	100	37.5	–	–	–
COc1ccc(/C=N/Nc2nc3ccccc3c(=O)n2-c2ccccc2)cc1OC	62.5	83	4.72	87.5	25	–	–	–
O=c1c2ccccc2nc(N/N=C/c2ccc(Cl)cc2)n1-c1ccccc1	100	50	5.53	100	50	–	–	–
O=C1NN=C(c2ccccc2)C(c2ccccc2)C1Sc1nc2ccccc2c(=O)n1-c1ccccc1 (stereo unspecified)	62.5	68	6.4	87.5	37.5	–	–	–
O=C(CSc1nc2ccccc2c(=O)n1-c1ccccc1)c1ccc(Br)cc1	50	78	5.77	100	37.5	–	–	–
O=c1c2ccccc2n2c(-c3ccc(Cl)cc3)nnc2n1-c1ccccc1	62.5	64	5.25	100	37.5	–	–	–
COc1ccc(-c2nnc3n(-c4ccccc4)c(=O)c4ccccc4n23)cc1OC	37.5	160	4.44	50	12.5	–	–	–
CN1C(=O)CN=C(c2ccccc2)c2cc(Cl)ccc21 [DIAZEPAM]	–	2	–	–	–	–	–	–
CCC1(c2ccccc2)C(=O)NC(=O)NC1=O [PHENOBARBITAL]	–	16	1.36	–	–	50	37.5	62.5
CCn1c(SCC(=O)c2ccc(Br)cc2)nc2ccccc2c1=O	50	86	4.45	87.5	37.5	–	–	–
O=C(CSc1nc2ccccc2c(=O)n1-c1ccccc1)c1ccc(Cl)cc1	62.5	80	5.5	87.5	25	–	–	–
COc1ccc(C(=O)CSc2nc3ccccc3c(=O)n2-c2ccccc2)cc1	50	85	4.82	87.5	37.5	–	–	–
N#Cc1cnn(-c2nc3ccccc3c(=O)n2-c2ccccc2)c1N	50	90	3.01	87.5	25	–	–	–
